Assay results: patent US20180015070A1, “METHODS AND COMPOSITIONS FOR UPREGULATING ENDOGENOUS ANTIOXIDANT SYSTEMS” (USANA Health Sciences, Inc., priority 2016, published 2018)
Like-named read-outs stand apart in the source and are kept apart here. Marks after values point to notes of the source that are not given here.

Key:
Nrf2 = Nrf2 signaling fluorescent reporter assay in human retinal epithelial cell line; format: cell-based; conditions: for minimum inducing concentration (Nrf2): human retinal epithelial cell line
Experimental: The assays were carried out with a fluorescent reporter assay that utilized a human retinal epithelial cell line. The assays also included validation by RT-PCR (reverse transcription polymerase chain reaction) of Nrf2 target genes. The human retinal epithelial cell line was purchased from ATCC (American Type Cell Culture, Manassas, Va.) and was configured to function as a fluorescent reporter assay. Test solutions of each of the alpha lipoic acid, resveratrol, curcumin, EGCG, Olivol®, rutin, quercetin, and hesperetin were prepared by serial dilution. Control solutions were also prepared. Positive control solutions of a known Nrf2 agonist, L-sulphoraphane was also prepared. Each test solution was then assayed for Nrf2 signaling activity using the fluorescent reporter assay and compared to control assays. The positive control solutions were also tested.

[1] = test system: C. elegans strain CB5586 worms; assay: phenotypic lifespan screening with C. elegans; format: in vivo; conditions: for anti-ageing activity / effect on chronological lifespan: over the concentrations tested; for population age in days at 25% mortality: DMSO control 11; for population age in days at 50% mortality: DMSO control 14; for population age in days at 75% mortality: DMSO control 16
Experimental: Dilutions of the test formulations were applied to individual populations of C. elegans and the lifespan of each population was monitored. Any changes in the lifespan of an individual population compared to a control population were recorded and correlated to the respective test formulation (N356 or N357) and the respective dilution (0.1 mg/ml, 1 mg/ml, and 10 mg/ml).
The N356 and N357 formulations were each prepared as individual 100 mg/ml stock solutions in dimethyl sulfoxide (DMSO). Serial dilutions of each stock solution were then prepared at 0.1 mg/ml, 1 mg/ml, and 10 mg/ml in DMSO. Control solutions of DMSO only were also prepared. Synchronous aged adult populations of C. elegans strain CB5586 worms were prepared. The CB5586 strain comprises a pharyngeal GFP (green fluorescent protein) tag and a mutation in the bus-5 gene. The pharyngeal GFP tag allows for fluorescent images of the worm populations to be taken. The mutation in the bus-5 gene causes the loss of normal cuticle antigens that permits the cuticle of the worms to become permeable to the test formulations and allow direct uptake of the test formulations to avoid interaction of the test formulations with protective mechanisms of the gut channel. Each serial dilution of each test formulation was added to a separate population of the prepared worms. The control solutions were also added to separate populations of the prepared worms. The populations of the prepared worms were then maintained on standard nematode growth media (NGM) agar plates at 20° C. with sufficient food (Escherichia coli strain OP-50).
Each worm population was then monitored by fluorescent imaging to determine the number of living and dead worms as a function of time. The fluorescent imaging was analyzed by software that recognized and counted worms based on their fluorescent intensity compared to background fluorescence. […] The ability to distinguish between living and dead worms allowed the number of living worms and cumulative number of dead worms to be monitored against time. Worm populations from a selection of fluorescent images were manually checked to verify that the software had accurately counted the number of living and dead worms.
The counts of the living and dead worms as a function of time were then analyzed for each of the worm populations and used to prepare Kaplan-Meier survival curves and associated statistics for each of the worm populations. […] The median lifespan is shown as the length of time after the last mitotic division that 50% of the test population remains viable when compared to the control population. The maximum lifespan extension is shown as the length of time after the last mitotic division that 5% of the test population remains viable when compared to the control population.
The counts of the living and dead worms as a function of time and the Kaplan-Meier survival curves and the associated statistics were then analyzed for each of the worm populations. The analysis included determining mean and median lifespan. The analysis included a non-parametric test, the Log-Rank test, which compares two survival functions for the overall lifespan assay and provides a reliable p-value summarizing the whole experiment. The analysis also included Fisher's Exact Test that calculated the significance of survival function comparisons at multiple specific time points throughout the experiment, rather than for the overall lifespan. The results of the analysis are shown below in Tables 10-17. […]

[2] = test system: NF-κB reporter cells (HEK293); conditions: human, 24 h
human Nrf2 = assay: Nrf2 reporter assay, agonist mode (native receptor, ARE-luciferase, CV1); format: cell-based; conditions: for agonist activity against human Nrf2: at the concentrations tested
[3] = 0.1 mg/ml, compared to DMSO control
[4] = 10 mg/ml, compared to DMSO control
[5] = at 10 μM and 1 (unit not given)

O=C(O)CCCCC1CCSS1 (racemic) [Alpha lipoic acid, alpha lipoic acid]
activation of Nrf2 against a control (Nrf2; at 100 μM and 30 (unit not given)): demonstrated activation of Nrf2 | minimum inducing concentration (Nrf2) (Nrf2): 1.75 µM | anti-ageing activity / effect on chronological lifespan [1]: significant positive and dose dependent increase of chronological lifespan | NF-κB % Live Cell ([2]; 1.42 μg/ml): 100% | Nrf2 Fold-Activation (human Nrf2; 1.42 μg/ml active ingredient): 1.4 fold | Nrf2 Fold-Activation (human Nrf2; 4.25 μg/ml active ingredient): 1.4 fold | Nrf2 Fold-Activation (human Nrf2; 12.7 μg/ml active ingredient): 1.5 fold | Nrf2 Fold-Activation (human Nrf2; 38.23 μg/ml active ingredient): 1.5 fold | Nrf2 Fold-Activation (human Nrf2; 114.70 μg/ml active ingredient): 2.4 fold | agonist activity against human Nrf2 (human Nrf2): very low-level agonist activity

COc1cc(/C=C/C(=O)CC(=O)/C=C/c2ccc(O)c(OC)c2)ccc1O [Curcumin, curcumin]
NF-κB % Live Cell ([2]; 0.6 μg/ml): 99% | NF-κB % Live Cell ([2]; 1.81 μg/ml): 97% | Nrf2 Fold-Activation (human Nrf2; 0.007 μg/ml active ingredient): 1.6 fold | Nrf2 Fold-Activation (human Nrf2; 0.022 μg/ml active ingredient): 1.7 fold | Nrf2 Fold-Activation (human Nrf2; 0.067 μg/ml active ingredient): 1.4 fold | Nrf2 Fold-Activation (human Nrf2; 0.20 μg/ml active ingredient): 0.96 fold | Nrf2 Fold-Activation (human Nrf2; 0.60 μg/ml active ingredient): 1.0 fold | Nrf2 Fold-Activation (human Nrf2; 1.81 μg/ml active ingredient): 1.6 fold

COc1ccc([C@@H]2CC(=O)c3c(O)cc(O)cc3O2)cc1O [Hesperetin, (S)-2,3-Dihydro-5,7-dihydroxy-2-(3-hydroxy-4-methoxyphenyl)-4H-1-benzopyran-4-one]
NF-κB % Live Cell ([2]; 0.043 μg/ml): 98% | NF-κB % Live Cell ([2]; 0.389 μg/ml): 99% | NF-κB % Live Cell ([2]; 1.167 μg/ml): 98% | NF-κB % Live Cell ([2]; 3.5 μg/ml): 96% | Nrf2 Fold-Activation (human Nrf2; 0.043 μg/ml active ingredient): 1.4 fold | Nrf2 Fold-Activation (human Nrf2; 0.389 μg/ml active ingredient): 1.3 fold | Nrf2 Fold-Activation (human Nrf2; 1.167 μg/ml active ingredient): 1.5 fold | Nrf2 Fold-Activation (human Nrf2; 3.5 μg/ml active ingredient): 0.94 fold

COc1ccc([C@@H]2CC(=O)c3c(O)cc(O[C@@H]4O[C@H](CO[C@@H]5O[C@@H](C)[C@H](O)[C@@H](O)[C@H]5O)[C@@H](O)[C@H](O)[C@H]4O)cc3O2)cc1O [N347, Hesperidin]
% Change in Mean Lifespan [1, 3]: +10% | extension of lifespan ([1]; 0.1 mg/ml, vs DMSO control): about 10% | population age in days at 25% mortality ([1]; 0.1 mg/ml): 11 days | population age in days at 50% mortality ([1]; 0.1 mg/ml): 16 days | population age in days at 75% mortality ([1]; 0.1 mg/ml): 18 days | Statistically Significant Result [1, 4]: No statistical difference | population age in days at 25% mortality ([1]; 10 mg/ml): 11 days | population age in days at 50% mortality ([1]; 10 mg/ml): 14 days | population age in days at 75% mortality ([1]; 10 mg/ml): 18 days | anti-ageing activity / effect on chronological lifespan [1]: significant positive and dose dependent increase of chronological lifespan

O=c1c(O)c(-c2ccc(O)c(O)c2)oc2cc(O)cc(O)c12 [Quercetin, 2-(3,4-dihydroxyphenyl)-3,5,7-trihydroxy-4H-chromen-4-one]
concentration giving more Nrf2 activation (Nrf2; 10 μM compared with 1 μM): more activation at the 1 μM concentration | activation of Nrf2 against a control (Nrf2; [5]): demonstrated activation of Nrf2 | minimum inducing concentration (Nrf2) (Nrf2): 0.55 µM | Statistically Significant Result [1, 4]: No statistical difference | anti-ageing activity / effect on chronological lifespan [1]: significant negative effect on chronological lifespan | NF-κB % Live Cell ([2]; 23 μg/ml): 97% | NF-κB % Live Cell ([2]; 68 μg/ml): 77*** % | agonist activity against human Nrf2 (human Nrf2): low-level agonist activity

Oc1ccc(/C=C/c2cc(O)cc(O)c2)cc1 [Resveratrol, 3,5,4′-trihydroxy-trans-stilbene]
activation of Nrf2 against a control (Nrf2; [5]): demonstrated activation of Nrf2 | Statistically Significant Result [1, 3]: No statistical difference | anti-ageing activity / effect on chronological lifespan [1]: significant positive and dose dependent increase of chronological lifespan | NF-κB % Live Cell ([2]; 0.28 μg/ml): 100% | NF-κB % Live Cell ([2]; 0.85 μg/ml): 100% | NF-κB % Live Cell ([2]; 1.81 μg/ml): 99%

C[C@@H]1O[C@@H](OC[C@H]2O[C@@H](Oc3c(-c4ccc(O)c(O)c4)oc4cc(O)cc(O)c4c3=O)[C@H](O)[C@@H](O)[C@@H]2O)[C@H](O)[C@H](O)[C@H]1O [Rutin, quercetin-3-O-rutinoside]
NF-κB % Live Cell ([2]; 1.11 μg/ml): 99% | NF-κB % Live Cell ([2]; 3.3 μg/ml): 98% | NF-κB % Live Cell ([2]; 30 μg/ml): 97%
